Results taken from article PMC5451423, “Pharmacokinetic Evaluation of Empagliflozin in Healthy Egyptian Volunteers Using LC-MS/MS and Comparison with Other Ethnic Populations” (Scientific Reports, 2017).
Read-outs that look alike come from different tables or passages of the source.

How the values were obtained:
[1] = Single oral dose pharmacokinetic study of EG in healthy Egyptian volunteers (LC-MS/MS of plasma); assay type: in vivo, human; conditions: one JARDIANCE tablet 25 mg EG; for Cmax, Mean ± S.D. (% C.V.): n=6, fasting, single oral dose
Experimental: Each EG calibrator and quality control (QC) plasma sample (980 µL) was spiked with 20 µL containing the appropriate amount of EG in acetonitrile prepared with dilution of EG working solution. All samples including the volunteers’ plasma samples (1 mL plasma) were spiked with 100 µL of IS that contained 100 ng of DG followed by vortexing for 20 sec. Five milliliters of TBME were added, vortexed for 1 min, and centrifuged for 30 min at 6000 rpm. Four milliliters of the organic layer were vacuum evaporated until dryness at 60 °C. Three hundred microliters of acetonitrile were added to reconstitute the resulting residue and vortexed for 3 min. Ten microliters of the reconstituted solution were injected into the LC-MS/MS system.
The pharmacokinetic parameters of EG were studied in healthy human subjects according to the ethical regulations of World Medical Association Declaration of Helsinki (October 1996) and the International Conference of Harmonization Tripartite Guideline for Good Clinical Practice. Written informed consent was provided by each volunteer before enrollment. Approval of the study by the ethical committee was mandatory according to the Egyptian ministry of Health and The British University in Egypt research ethics guidelines. The experimental protocols were approved by the ethics committee of the Faculty of Pharmacy, The British University in Egypt. The clinical trial protocol was registered in a publically accessible primary register that participates in the WHO International Clinical Trial Registry Platform (ClinicalTrials.gov, 16/02/2017, ID: NCT03059056). Good health of the human subjects was confirmed with a complete medical history and physical examination. Fasting of all volunteers eliminated the possible interaction from high fat meals. The evaluation of safety of the study was based on monitoring of blood glucose level, vital signs, pulse rate, monitoring of adverse events, and physical examination. Samples from 6 healthy, adult, male, Egyptian volunteers (age: 22–33 years, average weight: 77.8 kg, average body mass index (BMI): 29.2) were collected at 0, 0.5, 1, 1.5, 2, 3, 4, 8 and 12 hrs, transferred to heparinized centrifuge tubes and analyzed with the proposed method after single oral dose administration of one JARDIANCE tablet nominally containing 25 mg EG. Blood samples (3 mL of each sample) were centrifuged at 3000 rpm for 5 min, 1 mL of the plasma was separated and spiked with 100 µL (equivalent to 100 ng) of IS working solution, and then the procedure discussed under (Sample preparation) was applied. The main pharmacokinetic parameters of the study, Cmax, Tmax, t1/2, elimination rate constant, AUC0-t and AUC0-inf, were estimated using validated Excel software. Blood glucose level was determined for all volunteers at 0 and 1.5 hrs to monitor any hypoglycemic effect. The study was conducted as per FDA guidelines.

[2] = Monitoring of blood glucose level of volunteers (hypoglycemic effect); assay type: in vivo, human; conditions: healthy Egyptian volunteers, 25 mg EG single oral dose, determined at 0 and 1.5 hrs
Excerpt: The pharmacokinetic parameters of EG were studied in healthy human subjects according to the ethical regulations of World Medical Association Declaration of Helsinki (October 1996) and the International Conference of Harmonization Tripartite Guideline for Good Clinical Practice. Written informed consent was provided by each volunteer before enrollment. Approval of the study by the ethical committee was mandatory according to the Egyptian ministry of Health and The British University in Egypt research ethics guidelines. The experimental protocols were approved by the ethics committee of the Faculty of Pharmacy, The British University in Egypt. The clinical trial protocol was registered in a publically accessible primary register that participates in the WHO International Clinical Trial Registry Platform (ClinicalTrials.gov, 16/02/2017, ID: NCT03059056). […] Samples from 6 healthy, adult, male, Egyptian volunteers (age: 22–33 years, average weight: 77.8 kg, average body mass index (BMI): 29.2) were collected at 0, 0.5, 1, 1.5, 2, 3, 4, 8 and 12 hrs, transferred to heparinized centrifuge tubes and analyzed with the proposed method after single oral dose administration of one JARDIANCE tablet nominally containing 25 mg EG. […] Blood glucose level was determined for all volunteers at 0 and 1.5 hrs to monitor any hypoglycemic effect. […]

[3] = white German subjects, cited from earlier work
[4] = parameters: method as in PMID 25199997; conditions: Japanese subjects, Group 1, n=8, 25 mg empagliflozin; cited from earlier work
[5] = parameters: method as in PMID 26101175; conditions: Chinese subjects, Group 2, n=9, 25 mg empagliflozin; cited from earlier work
[6] = parameters: method as in PMID 23859534; conditions: glucuronidation is the major metabolic pathway; cited from earlier work

k el ([1]; male, human, plasma, n=6, single oral dose, read-out: Elimination rate constant, Mean ± S.D. (% C.V.) (converted)): 2.78e-05 s⁻¹
half-life ([1]; male, human, plasma, n=6, single oral dose, read-out: t 1/2, Mean ± S.D. (% C.V.) (converted)): 6.1 ± 1.2 h
Cmax, Mean ± S.D. (% C.V.) ([1]; plasma): 576 ± 86 (14.93) nMol/L
Cmax, Mean ± S.D. (% C.V.) ([1]; plasma, listed as empagliflozin): 576 nmol/L
AUC0-inf, Mean ± S.D. (% C.V.) ([1]; n=6, single oral dose): 4103 ± 427 (10.41) nMol.h/L
AUC0−t (12), Mean ± S.D. (% C.V.) ([1]; n=6, single oral dose, 0-12 h): 2806 ± 234 (8.34) nMol.h/L
AUC0-inf, Mean ± S.D. (% C.V.) ([1]; n=6, single oral dose, listed as empagliflozin): 4103 nmol·h/L
blood glucose level of all volunteers [2]: in the normal range
SMILES: OC[C@H]1O[C@@H](c2ccc(Cl)c(Cc3ccc(O[C@H]4CCOC4)cc3)c2)[C@H](O)[C@@H](O)[C@@H]1O [Empagliflozin]
AUC0-inf, Mean ([3]; Group 1, n=6, 25 mg EG): 3.83 µM·h
Cmax, Mean ([3]; Group 1, n=6, 25 mg EG): 505 nM
AUC0-inf, Mean ([3]; Group 2, n=18, 25 mg EG): 4.77 µM·h
Cmax, Mean ([3]; Group 2, n=18, 25 mg EG): 610 nM
AUC0-inf, Mean ([3]; Group 3, n=9, 25 mg EG): 4.31 µM·h
Cmax, Mean ([3]; Group 3, n=9, 25 mg EG): 606 nM
AUC0-inf, Mean ([3]; Group 4, n=9, 25 mg EG): 4.99 µM·h
Cmax, Mean ([3]; Group 4, n=9, 25 mg EG): 630 nM
AUC0-inf, Mean [4]: 7.56 µM·h
Cmax, Mean [4]: 1070 nM
AUC0-inf, Mean [5]: 7.45 µM·h
Cmax, Mean [5]: 1130 nM
metabolites detected in human plasma [6]: no major metabolites
